From publication PMC5786306, “An AKAP-Lbc-RhoA interaction inhibitor promotes the translocation of aquaporin-2 to the plasma membrane of renal collecting duct principal cells” (PLoS ONE, 2018)
Like-named read-outs stand apart in the source and are kept apart here.

Tests used:
[1] = Nephelometric solubility; type: physicochemical; settings: maximal solubility in DMEM + 10 % FCS
Protocol: Solubility of Scaff10 derivatives was assessed nephelometrically. Scaff10 derivatives are moderately to poorly soluble in aqueous solutions due to their large number of aromatic rings having lipophilic character. Details about NMR, LC/MS and HPLC characterization steps are given in the Supplemental Information.
Suppl. Tab. 3: Overview of all 55 Scaff10 derivatives.Structures labeld with 1 were commercially obtained. MW = molecular weight. logP = calculated partition coefficient (using […]
Solubility was assessed nephelometrically in DMEM + 10 % FCS + Scaff10 derivative with either 0.3 or 2 % DMSO
final concentration; values in µM indicate maximal solubility of the compound under the respective condition. Yield in % indicates total yield of the last step of chemical synthesis
for each of Scaff10 derivatives. n.d. = not determined. n.i. = not indicated.
Scaff10 MW Number of exp. 2 % DMSO 0.3 % DMSO Scaff10 Yield
Structure log P Disruption of the PPI IC50 [µM]
derivative [g/mol] in dupl. [µM] [µM] class [%]

[2] = biological target: T1, interaction of AKAP-Lbc/DHPH and RhoA (Homo sapiens, UniProt P61586); assay: Homogeneous time-resolved fluorescence (HTRF) assay; type: binding; settings: for inhibitory effect on the AKAP-Lbc/DHPH-RhoA interaction: result in words
T1 construct: His6-AKAP-Lbc/DHPH (aa 1972–2342 of human AKAP-Lbc; NP_006729.4); made in house
Description: Fig 2 The small molecule Scaff10-8 inhibits the interaction of the DH domain of AKAP-Lbc and RhoA. (A). Principle of homogenous time-resolved fluorescence (HTRF) assay. Recombinant His-AKAP-Lbc/DHPH and GST-RhoA were generated. The tags are recognized by specific antibodies coupled to fluorescent dyes. When the two proteins interact, donor and acceptor dyes of the antibodies are in close proximity, energy transfer occurs upon excitation at 320 nm and a FRET signal is detected (665 nm). If a compound disrupts the interaction of the DHPH domain and RhoA, the proximity of the fluorescent moieties remains insufficient for a FRET signal to occur. […] As expected, excess untagged Rho decreases the binding between GST-RhoA and His-AKAP-Lbc/DHPH in a dose-dependent manner (lower left panel). […] (C) The influence of Scaff10-8 on the interaction of RhoA with the recombinant DH domain of AKAP-Lbc in the absence of the PH domain was determined by Alpha screen. […] The IC50 value is indicated.
The assay was essentially carried out as described. Scaff10 derivatives were added to His6-AKAP-Lbc/DHPH protein (250 nM final concentration) in HTRF buffer (PBS; 4 mM MgCl2; 0.05% Tween 20) in 384 well plates (Proxiplate-384 Plus, white, #6008289; Perkin Elmer LAS, Rodgau, Germany). Concentrations of Scaff10 derivatives ranged between 1.56–200 μM (2% DMSO final concentration); HTRF buffer with 2% DMSO served as a control. GST-RhoA (30 nM final concentration) in HTRF buffer and anti-GST antibody coupled to terbium (donor) and anti-His6-tag antibody coupled to XL665 (acceptor) were added to all wells (final antibody concentration: 2 μg/ml). After 1 h incubation at room temperature in the dark, FRET signals were recorded at 620 and 665 nm using a Genios Pro plate reader (Tecan Austria GmbH, Grödig, AT) and the ratios of […] to 620 nm were calculated. Wells containing no compound were set to 100% interaction of AKAP-Lbc/DHPH with RhoA, wells containing GST-RhoA only (without His6-AKAP-Lbc/DHPH) were set to 0% interaction. To exclude any interference of the tags and/or antibodies with Scaff10 derivatives, a His6-GST fusion protein replaced the two tagged proteins in a control assay. Wells containing His6-GST fusion protein were set to 100% interaction of His6-GST, wells containing no fusion protein were set to 0% interaction.

[3] = DMEM + 10 % FCS, plasma or biological fluid, kinetic from dmso stock, 0.3 % DMSO final, read-out: Solubility 0.3 % DMSO
[4] = DMEM + 10 % FCS, plasma or biological fluid, kinetic from dmso stock, 2 % DMSO final, read-out: Solubility 2 % DMSO
[5] = Suppl. Tab. 3, ± SEM, '-' = no IC50, inactive, n.d. = not determined, read-out: HTRF assay IC50
[6] = Table 1, HTRF, '-' = no IC50, inactive (n.d. is used separately in S3 Table), read-out: IC50 ± SEM
[7] = 0.3 % DMSO final, read-out: Solubility 0.3 % DMSO
[8] = 2 % DMSO final, read-out: Solubility 2 % DMSO
[9] = IC50 ± SEM, Table 1, HTRF, '-' = no IC50, inactive (n.d. is used separately in S3 Table)

T1 sequence (P61586 whole entry, the tested form may be a part): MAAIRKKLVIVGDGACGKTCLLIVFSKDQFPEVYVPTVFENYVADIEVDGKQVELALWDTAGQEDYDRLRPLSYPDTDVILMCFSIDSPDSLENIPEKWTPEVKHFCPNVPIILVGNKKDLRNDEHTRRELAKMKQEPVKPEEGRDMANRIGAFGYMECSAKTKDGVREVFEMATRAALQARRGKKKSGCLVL

Structure (SMILES)	solubility [1, 3]	solubility [1, 4]	IC50 [2, 5]	IC50 [2, 6]	solubility [1, 8]	also measured
COc1ccc(C(=O)COc2ccc3c(C)c(CCC(=O)O)c(=O)oc3c2)cc1 [Scaff10-6, 3-[7-[2-(4-Methoxyphenyl)-2-oxo-ethoxy]-4-methyl-2-oxo-chromen-3-yl]propanoic acid]	> 150 µM	100 µM	–	> 200 µM	–	–
Cc1c(CCC(=O)O)c(=O)oc2cc3occ(-c4ccccc4)c3cc12 [Scaff10-58]	> 150 µM	> 100 µM	–	66.7 ± 7.5 µM	–	–
COc1ccc(C(=O)COc2ccc3ccc(=O)oc3c2)cc1 [AE167, 7-[2-(4-Methoxyphenyl)-2-oxo-ethoxy]chromen-2-one]	–	30 µM	> 200 µM	–	–	–
Cc1c(C)c2cc3c(-c4ccc(-c5ccccc5)cc4)coc3cc2oc1=O [Scaff10-46]	–	–	–	> 200 µM	15 µM	solubility [1, 7]: > 150 µM; inhibitory effect on the AKAP-Lbc/DHPH-RhoA interaction ([2]; HTRF): no inhibitory effect
COc1ccc(-c2coc3cc4oc(=O)c(CCC(=O)NCC(=O)O)c(C)c4cc23)cc1 [Scaff10-61]	> 150 µM	–	–	–	–	IC50 [2, 9]: 64 ± 6 µM
Cc1c(CCC(=O)O)c(=O)oc2cc3occ(-c4ccc(C(F)(F)F)cc4)c3cc12 [Scaff10-30]	–	> 100 µM	–	–	–	inhibitory effect on the AKAP-Lbc/DHPH-RhoA interaction ([2]; HTRF): reduced; IC50 [2, 9]: 47.8 ± 7.8 µM
Cc1c(CCC(=O)O)c(=O)oc2cc(OCC(=O)c3ccc(N(C)C)cc3)ccc12 [Scaff10-35]	–	–	–	> 200 µM	> 100 µM	solubility [1, 7]: > 150 µM; inhibitory effect on the AKAP-Lbc/DHPH-RhoA interaction ([2]; HTRF): complete loss of activity
Cc1c(CCC(=O)O)c(=O)oc2cc3occ(-c4ccncc4)c3cc12 [Scaff10-32]	–	–	–	> 200 µM	> 100 µM	solubility [1, 7]: > 150 µM; inhibitory effect on the AKAP-Lbc/DHPH-RhoA interaction ([2]; HTRF): complete loss of activity
COc1ccc(C(=O)COc2ccc3c(C)c(C)c(=O)oc3c2)cc1 [AE168, [2-(4-Methoxyphenyl)-2-oxo-ethoxy]-3,4-dimethyl-chromen-2-one]	–	–	> 200 µM	–	75 µM	–
COc1cccc(-c2ccc(C(=O)COc3ccc4c(C)c(CCC(=O)O)c(=O)oc4c3)cc2)c1 [Scaff10-63]	75 µM	30 µM	–	–	–	IC50 ([2]; IC50 for inhibition of the AKAP-Lbc/DHPH-RhoA interaction, HTRF, text and figures, ± SEM, n = 3–15 in duplicate): 24 ± 8 µM; IC50 [2, 9]: 24.4 ± 8.4 µM
Cc1c(C)c2ccc(OCC(=O)c3cccnc3)cc2oc1=O [Scaff10-2, 3,4-Dimethyl-7-[2-oxo-2-(3-pyridyl)ethoxy]chromen-2-one]	75 µM	90 µM	> 200 µM	–	–	–
Cc1c(CCC(=O)O)c(=O)oc2cc3occ(-c4ccc(-c5ccccc5)cc4)c3cc12 [Scaff10-41]	–	50 µM	–	–	–	IC50 [2, 9]: 29.1 ± 2.6 µM
COc1ccc(C(=O)COc2ccc3c(C)c(CCC(=O)NCCNC(=O)CCCCC4SCC5NC(=O)NC54)c(=O)oc3c2)cc1 (centres unmarked) [Scaff10-9, N-[2-[3-[7-[2-(4-Methoxyphenyl)-2-oxo-ethoxy]-4-methyl-2-oxo-chromen-3-yl]propanoylamino]ethyl]-5-(2-oxo-1,3,3a,4,6,6a-hexahydrothieno[3,4-d]imidazol-4-yl)pentanamide]	–	–	> 200 µM	–	–	–
Cc1nc(-c2ccc(F)cc2)ccc1C(=O)COc1ccc2c(C)c(C)c(=O)oc2c1 [Scaff10-4, 7-[2-[6-(4-Fluorophenyl)-2-methyl-3-pyridyl]-2-oxo-ethoxy]-3,4-dimethyl-chromen-2-one]	> 150 µM	40 µM	> 200 µM	–	–	–
COc1cccc(-c2ccc(-c3coc4cc5oc(=O)c(CCC(=O)O)c(C)c5cc34)cc2)c1 [Scaff10-64]	> 150 µM	70 µM	–	–	–	IC50 [2, 9]: 28.9 ± 9.3 µM
CCOC(=O)CCc1c(C)c2ccc(OCC(=O)c3ccc(-c4ccc(F)cc4)nc3C)cc2oc1=O [Scaff10-10, Ethyl 3-[7-[2-[6-(4-fluorophenyl)-2-methyl-3-pyridyl]-2-oxo-ethoxy]-4-methyl-2-oxo-chromen-3-yl]propanoate]	–	–	> 200 µM	–	30 µM	solubility [1, 7]: > 150 µM

The next lines start with results.

solubility [1, 3]	solubility [1, 4]	IC50 [2, 5]	IC50 [2, 6]	solubility [1, 8]	Structure (SMILES)	also measured
> 150 µM	40 µM	> 200 µM	–	–	Cc1c(C)c2cc3c(-c4cccnc4)coc3cc2oc1=O [Scaff10-3, 5,6-Dimethyl-3-(3-pyridyl)furo[3,2-g]chromen-7-one]	–
–	–	–	> 200 µM	50 µM	COc1ccc(-c2coc3cc4oc(=O)c(CCC(=O)N(C)C)c(C)c4cc23)cc1 [Scaff10-26]	solubility [1, 7]: > 150 µM; inhibitory effect on the AKAP-Lbc/DHPH-RhoA interaction ([2]; HTRF): complete loss of the inhibitory effect
40 µM	15 µM	–	–	–	COc1ccc2cc(-c3coc4cc5oc(=O)c(CCC(=O)O)c(C)c5cc34)ccc2c1 [Scaff10-44]	IC50 [2, 9]: 20.7 ± 2.5 µM
–	–	–	> 200 µM	20 µM	COc1ccc(-c2coc3cc4oc(=O)c(CCC(=O)NO)c(C)c4cc23)cc1 [Scaff10-51]	solubility [1, 7]: 40 µM; inhibitory effect on the AKAP-Lbc/DHPH-RhoA interaction ([2]; HTRF): almost complete loss of activity
40 µM	45 µM	> 200 µM	–	–	COc1ccc(-c2coc3cc4oc(=O)ccc4cc23)cc1 [Scaff10-1, 3-(4-Methoxyphenyl)furo[3,2-g]chromen-7-one]	–
–	–	–	> 200 µM	15 µM	COc1ccc2cc(-c3coc4cc5oc(=O)c(C)c(C)c5cc34)ccc2c1 [Scaff10-47]	solubility [1, 7]: > 150 µM; inhibitory effect on the AKAP-Lbc/DHPH-RhoA interaction ([2]; HTRF): no inhibitory effect
> 150 µM	> 100 µM	–	56.4 ± 4.5 µM	–	COc1ccc(-c2coc3cc4oc(=O)c(CC(=O)O)c(C)c4cc23)cc1 [Scaff10-49]	IC50 ([2]; HTRF, text and figures, ± SEM, n = 3–15 in duplicate, read-out: IC50 for inhibition of the AKAP-Lbc/DHPH-RhoA interaction): 56 ± 5 µM
> 150 µM	65 µM	> 200 µM	–	–	Cc1nc(-c2ccc(F)cc2)ccc1-c1coc2cc3oc(=O)c(C)c(C)c3cc12 [Scaff10-5, 3-[6-(4-Fluorophenyl)-2-methyl-3-pyridyl]-5,6-dimethyl-furo[3,2-g]chromen-7-one]	–
